Measurements as given in US11820756B2, “Bradykinin B2 receptor antagonists” (Pharvaris Netherlands B.V., priority 2017, dated 2023).

Target: T1, human bradykinin B2 receptor (hB2R) (Homo sapiens, UniProt P30411)
T1 sequence (P30411 1-391): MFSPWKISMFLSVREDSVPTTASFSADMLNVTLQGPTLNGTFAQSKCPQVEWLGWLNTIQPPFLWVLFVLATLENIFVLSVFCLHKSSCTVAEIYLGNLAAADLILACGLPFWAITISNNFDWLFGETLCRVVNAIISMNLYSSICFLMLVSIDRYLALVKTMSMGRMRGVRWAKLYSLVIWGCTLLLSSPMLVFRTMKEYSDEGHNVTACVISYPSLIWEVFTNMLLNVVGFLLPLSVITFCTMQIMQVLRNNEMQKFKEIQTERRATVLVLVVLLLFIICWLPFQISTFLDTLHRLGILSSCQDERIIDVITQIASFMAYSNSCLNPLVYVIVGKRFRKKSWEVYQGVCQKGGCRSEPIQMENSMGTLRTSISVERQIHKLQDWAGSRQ
Assay: cell-based human bradykinin B2 receptor calcium mobilization (hB2R-CaM) assay
Conditions: HTS041C cells, bradykinin at EC80, calcium mobilization; read-out: IC50-value towards human bradykinin B2 receptor (hB2R)
Outline: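 HTS041C cells stably expressing hB2R were serum-reduced, loaded with Calcium 6 dye and pre-incubated with compound (8-point, n=2, 0.1% DMSO) for 25 min at 37° C. Bradykinin was then added at EC80. IC50 came from a 4-parameter logistic fit of the max-min fluorescence signal (485/525 nm).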

| SMILES | IC50 [nM] |
| --- | --- |
| Cc1cc(-n2cc(F)cn2)c2cccc(OCc3c(Cl)cc(F)cc3[C@H](C)NC(=O)[C@@H](O)CCN(C)C)c2n1 [Compound 72] | 251 to 1000 |
| Cc1cc(-c2[nH]ncc2C)c2cccc(OCc3c(Cl)cc(F)cc3[C@H](C)NC(=O)C(F)F)c2n1 [Compound 186] | 51 to 250 |
| Cc1cc(-n2ncnc2C)c2cccc(OCc3c(Cl)cc(F)cc3[C@H](C)NC(=O)c3ccon3)c2n1 [Compound 157] | ≤ 50 |
| Cc1cc(-n2nc(C)nc2C)c2cccc(OCc3c(Cl)cc(F)cc3[C@H](C)NC(=O)COC(F)F)c2n1 [Compound 134] | ≤ 50 |
| Cc1cc(-n2cc(F)cn2)c2cccc(OCc3c(Cl)cc(F)cc3[C@H](C)NC(=O)[C@@H](O)CN)c2n1 [Compound 21] | 251 to 1000 |
| Cc1cc(-c2ncnn2C)c2cccc(OCc3c(Cl)cc(F)cc3[C@H](C)NC(=O)COC(F)(F)F)c2n1 [Compound 116] | ≤ 50 |
| Cc1cc(-n2cc(F)cn2)c2cccc(OCc3c(Cl)cc(F)cc3[C@H](C)NC(=O)[C@H]3COC(C)(C)O3)c2n1 [Compound 62] | 51 to 250 |
| CC[C@H](NC(=O)c1ccon1)c1cc(F)cc(Cl)c1COc1cccc2c(-n3cc(F)cn3)cc(C)nc12 [Compound 153] | 51 to 250 |
| Cc1cc(-n2cc(F)cn2)c2cccc(OCc3c(Cl)cc(F)cc3[C@H](C)NC(=O)[C@@](C)(O)C(F)(F)F)c2n1 [Compound 52] | 251 to 1000 |
| Cc1cc(-n2cc(F)cn2)c2cccc(OCc3c(Cl)cc(F)cc3[C@H](C)NC(=O)[C@@H](O)C(C)C)c2n1 [Compound 22] | 51 to 250 |
| CO[C@@H](C)C(=O)N[C@@H](C)c1cc(F)cc(Cl)c1COc1cccc2c(-n3cc(F)cn3)cc(C)nc12 [Compound 16] | ≤ 50 |
| [2H][C@@](C)(NC(=O)[C@@H](C)F)c1cc(F)cc(Cl)c1COc1cccc2c(-n3ncnc3C)cc(C)nc12 [Compound 11C, (R)—N—((S)-1-deutero-1-(3-chloro-5-fluoro-2-((2-methyl-4-(5-methyl-1H-1,2,4-triazol-1-yl)quinolin-8-yloxy)methyl)phenyl)ethyl)-2-fluoropropanamide] | ≤ 50 |
| [2H][C@@](C)(NC(=O)[C@@H](C)F)c1cc(F)cc(Cl)c1COc1cccc2c(-c3ncnn3C)cc(C)nc12 [Compound 211] | ≤ 50 |
| Cc1cc(-c2ncnn2C)c2cccc(OCc3c(Cl)cc(F)cc3[C@H](C)NC(=O)c3ccccn3)c2n1 [Compound 164] | ≤ 50 |
| Cc1cc(-n2cc(F)cn2)c2cccc(OCc3c(Cl)cc(F)cc3[C@H](C)NC(=O)[C@@H]3CCC(=O)N3)c2n1 [Compound 114] | 51 to 250 |
